Data as given in patent US10499642B2, “Isoxazoline-substituted benzamides and analogues as insecticides” (SYNGENTA PARTICIPATIONS AG, priority 2015, dated 2019).

Experiments:
Assay type in all cases: in vivo
Tetranychus urticae = Tetranychus urticae (two-spotted spider mite) bean leaf disc test; conditions: foliar, 192 h
Protocol: Tetranychus urticae (Two-Spotted Spider Mite):
Bean leaf discs on agar in 24-well microtiter plates were sprayed with aqueous test solutions prepared from 10′000 ppm DMSO stock solutions. After drying the leaf discs were infested with a mite population of mixed ages. The samples were assessed for mortality on mixed population (mobile stages) 8 days after infestation.

Myzus persicae = Myzus persicae (green peach aphid) sunflower leaf disc test; conditions: foliar, 144 h
Protocol: Myzus persicae (Green Peach Aphid):
Sunflower leaf discs were placed on agar in a 24-well microtiter plate and sprayed with test solutions at an application rate of 200 ppm. After drying, the leaf discs were infested with an aphid population of mixed ages. After an incubation period of 6 days after treatment, samples were checked for mortality. The following compounds gave at least 80% mortality of Myzus persicae: […]

Spodoptera littoralis = Spodoptera littoralis (Egyptian cotton leaf worm) cotton leaf disc test; conditions: foliar, 72 h, read-out: control (at least one of mortality, anti-feedant effect, and growth inhibition)
How it was run: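 Five first-instar larvae per disc were placed on dried, sprayed cotton leaf discs held on agar. Test solutions were aqueous, made from 10′000 ppm DMSO stocks. At day 3, control was counted when mortality, feeding deterrence or growth inhibition exceeded the untreated discs.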

Plutella xylostella = Plutella xylostella (diamond back moth) artificial diet test; conditions: 120 h, read-out: effect in at least one of the two categories (mortality or growth inhibition)
How it was run: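 At a 200 ppm rate, test solutions were applied to artificial diet and allowed to dry before second-instar larvae were added. Five days later, larval mortality and growth inhibition were rated against untreated samples.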

Thrips tabaci = Thrips tabaci (onion thrips) sunflower leaf disc test; conditions: foliar, 144 h
Protocol: Thrips tabaci (Onion Thrips):
Sunflower leaf discs were placed on agar in 24-well microtiter plates and sprayed with aqueous test solutions prepared from 10′000 ppm DMSO stock solutions. After drying the leaf discs were infested with a thrips population of mixed ages. The samples were assessed for mortality 6 days after infestation.

Diabrotica Balteata = assay: Diabrotica balteata (corn root worm) maize sprout test; conditions: 96 h, read-out: effect in at least one of the two categories (mortality or growth inhibition)
How it was run: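 Scoring covered both mortality and growth inhibition relative to untreated controls, 4 days post-infestation. Test solutions at 200 ppm, diluted in water from 10′000 ppm DMSO stocks, were sprayed onto agar-held maize sprouts, which after drying received 6 to 10 L2 larvae each well.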

C#CCCCOC1=NOC(NC(=O)c2ccc(C3=NO[C@@](c4cc(Cl)c(Cl)c(Cl)c4)(C(F)(F)F)C3)cc2C)C1 (stereo partly drawn) [Compound A113, 2-methyl-N-(3-pent-4-ynoxy-4,5-dihydroisoxazol-5-yl)-4-[(5S)-5-(3,4,5-trichlorophenyl)-5-(trifluoromethyl)-4H-isoxazol-3-yl]benzamide]
≥ 80%: mortality at 200 ppm (Tetranychus urticae) | mortality at 200 ppm (Myzus persicae) | percent control (mortality, anti-feedant effect or growth inhibition) at 200 ppm (Spodoptera littoralis) | percent effect (mortality or growth inhibition) at 200 ppm (Plutella xylostella) | mortality at 200 ppm (Thrips tabaci) | percent effect (mortality or growth inhibition) at 200 ppm (Diabrotica Balteata)

CC1=NOC(NC(=O)c2ccc(C3=NO[C@@](c4cc(Cl)cc(Cl)c4)(C(F)(F)F)C3)cc2C)C1 (stereo partly drawn) [Compound A141]
≥ 80%: mortality at 200 ppm (Tetranychus urticae) | mortality at 200 ppm (Myzus persicae) | percent control (mortality, anti-feedant effect or growth inhibition) at 200 ppm (Spodoptera littoralis) | percent effect (mortality or growth inhibition) at 200 ppm (Plutella xylostella) | mortality at 200 ppm (Thrips tabaci) | percent effect (mortality or growth inhibition) at 200 ppm (Diabrotica Balteata)

Cc1cc(C2=NO[C@@](c3cc(Cl)c(F)c(Cl)c3)(C(F)(F)F)C2)ccc1C(=O)NC1CC(OCC(F)(F)C(F)(F)F)=NO1 (stereo partly drawn) [Compound A102]
≥ 80%: mortality at 200 ppm (Tetranychus urticae) | mortality at 200 ppm (Myzus persicae) | percent control (mortality, anti-feedant effect or growth inhibition) at 200 ppm (Spodoptera littoralis) | percent effect (mortality or growth inhibition) at 200 ppm (Plutella xylostella) | mortality at 200 ppm (Thrips tabaci) | percent effect (mortality or growth inhibition) at 200 ppm (Diabrotica Balteata)

COC1=NOC(NC(=O)c2ccc(C3=NO[C@@](c4cc(Cl)c(Cl)c(Cl)c4)(C(F)(F)F)C3)cc2C)C1 (stereo partly drawn) [Compound A041]
≥ 80%: mortality at 200 ppm (Tetranychus urticae) | mortality at 200 ppm (Myzus persicae) | percent control (mortality, anti-feedant effect or growth inhibition) at 200 ppm (Spodoptera littoralis) | percent effect (mortality or growth inhibition) at 200 ppm (Plutella xylostella) | mortality at 200 ppm (Thrips tabaci) | percent effect (mortality or growth inhibition) at 200 ppm (Diabrotica Balteata)

CCOC1=NOC(N(C=O)C(=O)c2ccc(C3=NO[C@@](c4cc(Cl)cc(Cl)c4)(C(F)(F)F)C3)cc2C)C1 (stereo partly drawn) [Compound A133, 4-[(5S)-5-(3,5-dichlorophenyl)-5-(trifluoromethyl)-4H-isoxazol-3-yl]-N-(3-ethoxy-4,5-dihydroisoxazol-5-yl)-N-formyl-2-methyl-benzamide]
≥ 80%: mortality at 200 ppm (Tetranychus urticae) | mortality at 200 ppm (Myzus persicae) | percent control (mortality, anti-feedant effect or growth inhibition) at 200 ppm (Spodoptera littoralis) | percent effect (mortality or growth inhibition) at 200 ppm (Plutella xylostella) | mortality at 200 ppm (Thrips tabaci) | percent effect (mortality or growth inhibition) at 200 ppm (Diabrotica Balteata)

CC1=NOC(N(C=O)C(=O)c2ccc(C3=NO[C@@](c4cc(Cl)c(Cl)c(Cl)c4)(C(F)(F)F)C3)cc2C)C1 (stereo partly drawn) [Compound A023, N-formyl-2-methyl-N-(3-methyl-4,5-dihydroisoxazol-5-yl)-4-[(5S)-5-(3,4,5-trichlorophenyl)-5-(trifluoromethyl)-4H-isoxazol-3-yl]benzamide]
≥ 80%: mortality at 200 ppm (Tetranychus urticae) | mortality at 200 ppm (Myzus persicae) | percent control (mortality, anti-feedant effect or growth inhibition) at 200 ppm (Spodoptera littoralis) | percent effect (mortality or growth inhibition) at 200 ppm (Plutella xylostella) | mortality at 200 ppm (Thrips tabaci) | percent effect (mortality or growth inhibition) at 200 ppm (Diabrotica Balteata)

CCOC1=NOC(NC(=O)c2ccc(C3=NO[C@@](c4cc(Cl)cc(C(F)(F)F)c4)(C(F)(F)F)C3)cc2C)C1 (stereo partly drawn) [Compound A047]
≥ 80%: mortality at 200 ppm (Tetranychus urticae) | mortality at 200 ppm (Myzus persicae) | percent control (mortality, anti-feedant effect or growth inhibition) at 200 ppm (Spodoptera littoralis) | percent effect (mortality or growth inhibition) at 200 ppm (Plutella xylostella) | mortality at 200 ppm (Thrips tabaci) | percent effect (mortality or growth inhibition) at 200 ppm (Diabrotica Balteata)

CCOC1=NOC(NC(=O)c2ccc(C3=NO[C@@](c4cc(Cl)cc(Cl)c4)(C(F)(F)F)C3)cc2C)C1 (stereo partly drawn) [Compound A061, 4-[(5S)-5-(3,5-dichlorophenyl)-5-(trifluoromethyl)-4H-isoxazol-3-yl]-N-(3-ethoxy-4,5-dihydroisoxazol-5-yl)-2-methyl-benzamide]
≥ 80%: mortality at 200 ppm (Tetranychus urticae) | mortality at 200 ppm (Myzus persicae) | percent control (mortality, anti-feedant effect or growth inhibition) at 200 ppm (Spodoptera littoralis) | percent effect (mortality or growth inhibition) at 200 ppm (Plutella xylostella) | mortality at 200 ppm (Thrips tabaci) | percent effect (mortality or growth inhibition) at 200 ppm (Diabrotica Balteata)

Cc1cc(C2=NO[C@@](c3cc(Cl)cc(Cl)c3)(C(F)(F)F)C2)ccc1C(=O)N[C@@H]1CC(OCC(F)(F)F)=NO1 (single isomer, unassigned) [Compound A156]
≥ 80%: mortality at 200 ppm (Tetranychus urticae) | mortality at 200 ppm (Myzus persicae) | percent control (mortality, anti-feedant effect or growth inhibition) at 200 ppm (Spodoptera littoralis) | percent effect (mortality or growth inhibition) at 200 ppm (Plutella xylostella) | mortality at 200 ppm (Thrips tabaci) | percent effect (mortality or growth inhibition) at 200 ppm (Diabrotica Balteata)

CCC1=NOC(NC(=O)c2ccc(C3=NO[C@@](c4cc(Cl)cc(Cl)c4)(C(F)(F)F)C3)cc2C)C1 (stereo partly drawn) [Compound A137]
≥ 80%: mortality at 200 ppm (Tetranychus urticae) | mortality at 200 ppm (Myzus persicae) | percent control (mortality, anti-feedant effect or growth inhibition) at 200 ppm (Spodoptera littoralis) | percent effect (mortality or growth inhibition) at 200 ppm (Plutella xylostella) | mortality at 200 ppm (Thrips tabaci) | percent effect (mortality or growth inhibition) at 200 ppm (Diabrotica Balteata)

CC1=NOC(N(C=O)C(=O)c2ccc(C3=NO[C@@](c4cc(Cl)c(F)c(Cl)c4)(C(F)(F)F)C3)cc2C)C1 (stereo partly drawn) [Compound A008, 4-[(5S)-5-(3,5-dichloro-4-fluoro-phenyl)-5-(trifluoromethyl)-4H-isoxazol-3-yl]-N-formyl-2-methyl-N-(3-methyl-4,5-dihydroisoxazol-5-yl)benzamide]
≥ 80%: mortality at 200 ppm (Tetranychus urticae) | mortality at 200 ppm (Myzus persicae) | percent control (mortality, anti-feedant effect or growth inhibition) at 200 ppm (Spodoptera littoralis) | percent effect (mortality or growth inhibition) at 200 ppm (Plutella xylostella) | mortality at 200 ppm (Thrips tabaci) | percent effect (mortality or growth inhibition) at 200 ppm (Diabrotica Balteata)

COC1=NOC(NC(=O)c2ccc(C3=NO[C@@](c4cc(Cl)cc(C(F)(F)F)c4)(C(F)(F)F)C3)cc2C)C1 (stereo partly drawn) [Compound A042]
≥ 80%: mortality at 200 ppm (Tetranychus urticae) | mortality at 200 ppm (Myzus persicae) | percent control (mortality, anti-feedant effect or growth inhibition) at 200 ppm (Spodoptera littoralis) | percent effect (mortality or growth inhibition) at 200 ppm (Plutella xylostella) | mortality at 200 ppm (Thrips tabaci) | percent effect (mortality or growth inhibition) at 200 ppm (Diabrotica Balteata)

CC(C)=CCOC1=NOC(NC(=O)c2ccc(C3=NO[C@@](c4cc(Cl)c(F)c(Cl)c4)(C(F)(F)F)C3)cc2C)C1 (stereo partly drawn) [Compound A085]
≥ 80%: mortality at 200 ppm (Tetranychus urticae) | mortality at 200 ppm (Myzus persicae) | percent control (mortality, anti-feedant effect or growth inhibition) at 200 ppm (Spodoptera littoralis) | percent effect (mortality or growth inhibition) at 200 ppm (Plutella xylostella) | mortality at 200 ppm (Thrips tabaci) | percent effect (mortality or growth inhibition) at 200 ppm (Diabrotica Balteata)

Cc1cc(C2=NO[C@@](c3cc(Cl)c(F)c(Cl)c3)(C(F)(F)F)C2)ccc1C(=O)NC1CC(OC2CCC2)=NO1 (stereo partly drawn) [Compound A079]
≥ 80%: mortality at 200 ppm (Tetranychus urticae) | mortality at 200 ppm (Myzus persicae) | percent control (mortality, anti-feedant effect or growth inhibition) at 200 ppm (Spodoptera littoralis) | percent effect (mortality or growth inhibition) at 200 ppm (Plutella xylostella) | mortality at 200 ppm (Thrips tabaci) | percent effect (mortality or growth inhibition) at 200 ppm (Diabrotica Balteata)

Cc1cc(C2=NO[C@@](c3cc(Cl)c(F)c(Cl)c3)(C(F)(F)F)C2)ccc1C(=O)NC1CC(OCC(C)C)=NO1 (stereo partly drawn) [Compound A073]
≥ 80%: mortality at 200 ppm (Tetranychus urticae) | mortality at 200 ppm (Myzus persicae) | percent control (mortality, anti-feedant effect or growth inhibition) at 200 ppm (Spodoptera littoralis) | percent effect (mortality or growth inhibition) at 200 ppm (Plutella xylostella) | mortality at 200 ppm (Thrips tabaci) | percent effect (mortality or growth inhibition) at 200 ppm (Diabrotica Balteata)

Cc1cc(C2=NO[C@@](c3cc(Cl)c(F)c(Cl)c3)(C(F)(F)F)C2)ccc1C(=O)NC1CC(OCC(F)F)=NO1 (stereo partly drawn) [Compound A071]
≥ 80%: mortality at 200 ppm (Tetranychus urticae) | mortality at 200 ppm (Myzus persicae) | percent control (mortality, anti-feedant effect or growth inhibition) at 200 ppm (Spodoptera littoralis) | percent effect (mortality or growth inhibition) at 200 ppm (Plutella xylostella) | mortality at 200 ppm (Thrips tabaci) | percent effect (mortality or growth inhibition) at 200 ppm (Diabrotica Balteata)
